According to PubChem BioAssay AID1963963 (Molecular Pharmacology Branch, DTP, NCI, 2024):

Tested on: 958667-338-R-J2-PDC tumor spheroids viability
Assay: Anticancer human tumor 958667-338-R-J2-PDC patient-derived colon adenocarcinoma cell line growth inhibition [PI3K]
Conditions: spheroids with HUVEC and MSC; for IC50: curve of first compound; for viability, T/C: stronger effect = lower value
In short: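 Spheroid viability read-out. Co-cultures contained the tumor line plus HUVEC and human MSCs. Each agent was paired with a PI3K inhibitor (inavolisib, alpelisib, duvelisib, copanlisib) across half-log dilutions starting at clinical Cmax, or at 10 microM when Cmax was unknown.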

[1] = second compound 0.00316 µM, first compound 0.0316 µM
[2] = second compound 0.00316 µM, first compound 0.1 µM
[3] = second compound 0.00316 µM, first compound 0.316 µM
[4] = second compound 0.00316 µM, first compound 1 µM
[5] = second compound 0.00316 µM, first compound 3.16 µM
[6] = second compound 0.00316 µM, first compound 10 µM
[7] = second compound 0.01 µM, first compound 0.0316 µM
[8] = second compound 0.01 µM, first compound 0.1 µM
[9] = second compound 0.01 µM, first compound 0.316 µM
[10] = second compound 0.01 µM, first compound 1 µM
[11] = second compound 0.01 µM, first compound 3.16 µM
[12] = second compound 0.01 µM, first compound 10 µM
[13] = second compound 0.0316 µM, first compound 0.0316 µM
[14] = second compound 0.0316 µM, first compound 0.1 µM
[15] = second compound 0.0316 µM, first compound 0.316 µM
[16] = second compound 0.0316 µM, first compound 1 µM
[17] = second compound 0.0316 µM, first compound 3.16 µM
[18] = second compound 0.0316 µM, first compound 10 µM
[19] = second compound 0.1 µM, first compound 0.0316 µM
[20] = second compound 0.1 µM, first compound 0.1 µM
[21] = second compound 0.1 µM, first compound 0.316 µM
[22] = second compound 0.1 µM, first compound 1 µM
[23] = second compound 0.1 µM, first compound 3.16 µM
[24] = second compound 0.1 µM, first compound 10 µM
[25] = second compound 0.316 µM, first compound 0.0316 µM
[26] = second compound 0.316 µM, first compound 0.1 µM
[27] = second compound 0.316 µM, first compound 0.316 µM
[28] = second compound 0.316 µM, first compound 1 µM
[29] = second compound 0.316 µM, first compound 3.16 µM
[30] = second compound 0.316 µM, first compound 10 µM
[31] = second compound 1 µM, first compound 0.0316 µM
[32] = second compound 1 µM, first compound 0.1 µM
[33] = second compound 1 µM, first compound 0.316 µM
[34] = second compound 1 µM, first compound 1 µM
[35] = second compound 1 µM, first compound 3.16 µM
[36] = second compound 1 µM, first compound 10 µM
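Further: spheroids exposed to compounds for seven days before readout.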

How did the IC50 (second compound 0.00316 µM) turn out when `C=CC(=O)N1CCN(c2nc(=O)n(-c3c(C)ccnc3C(C)C)c3nc(-c4c(O)cccc4F)c(F)cc23)C(C)C1` (stereo unspecified) + CC(Nc1ccc2c(c1)OCCn1cc(N3C(=O)OCC3C(F)F)nc1-2)C(N)=O was run?
The IC50 was > 10 µM.

What about the IC50 (second compound 0.01 µM) of the same molecule?
The IC50 was > 10 µM.

And the IC50 (second compound 0.0316 µM)?
The IC50 was > 10 µM.

And the IC50 (second compound 0.1 µM)?
Its IC50 is > 10 µM.

What about the IC50 (second compound 0.316 µM) of the same molecule?
The IC50 was > 10 µM.

And the IC50 (second compound 1 µM)?
The IC50 was > 10 µM.

What about the viability, T/C [1] of the same molecule?
Its viability, T/C is 85.9%.

And the viability, T/C [2]?
Its viability, T/C is 112%.

What about the viability, T/C [3] of the same molecule?
Its viability, T/C is 82.4%.

And the viability, T/C [4]?
Its viability, T/C is 112%.

And the viability, T/C [5]?
The viability, T/C was 101%.

What about the viability, T/C [6] of the same molecule?
The viability, T/C was 111%.

What about the viability, T/C [7] of the same molecule?
The viability, T/C was 88.2%.

And the viability, T/C [8]?
Its viability, T/C is 100%.

What about the viability, T/C [9] of the same molecule?
The viability, T/C was 101%.

And the viability, T/C [10]?
Its viability, T/C is 102%.

And the viability, T/C [11]?
Its viability, T/C is 115%.

What about the viability, T/C [12] of the same molecule?
The viability, T/C was 94.5%.

What about the viability, T/C [13] of the same molecule?
The viability, T/C was 87.3%.

And the viability, T/C [14]?
The viability, T/C was 96.4%.

What about the viability, T/C [15] of the same molecule?
The viability, T/C was 88%.

What about the viability, T/C [16] of the same molecule?
The viability, T/C was 87.3%.

What about the viability, T/C [17] of the same molecule?
Its viability, T/C is 89.7%.

What about the viability, T/C [18] of the same molecule?
Its viability, T/C is 98.3%.

What about the viability, T/C [19] of the same molecule?
The viability, T/C was 80.5%.

What about the viability, T/C [20] of the same molecule?
Its viability, T/C is 88.8%.

And the viability, T/C [21]?
Its viability, T/C is 101%.

What about the viability, T/C [22] of the same molecule?
Its viability, T/C is 86.3%.

And the viability, T/C [23]?
Its viability, T/C is 96.7%.

And the viability, T/C [24]?
The viability, T/C was 99.3%.

What about the viability, T/C [25] of the same molecule?
Its viability, T/C is 58.2%.

What about the viability, T/C [26] of the same molecule?
Its viability, T/C is 62.7%.

What about the viability, T/C [27] of the same molecule?
The viability, T/C was 65.2%.

What about the viability, T/C [28] of the same molecule?
The viability, T/C was 75.2%.

And the viability, T/C [29]?
Its viability, T/C is 72.4%.

And the viability, T/C [30]?
The viability, T/C was 70.7%.

What about the viability, T/C [31] of the same molecule?
Its viability, T/C is 57.2%.

And the viability, T/C [32]?
Its viability, T/C is 55.2%.

What about the viability, T/C [33] of the same molecule?
Its viability, T/C is 75.1%.

And the viability, T/C [34]?
The viability, T/C was 62.2%.

What about the viability, T/C [35] of the same molecule?
The viability, T/C was 61.3%.

What about the viability, T/C [36] of the same molecule?
The viability, T/C was 60.4%.

What does the source list for `Cn1ncc(Cl)c1-c1cc(C(=O)NC(CN)Cc2cccc(F)c2)sc1Cl` (stereo unspecified) + CC(Nc1ccc2c(c1)OCCn1cc(N3C(=O)OCC3C(F)F)nc1-2)C(N)=O?
IC50 (second compound 0.00316 µM): 3.02 µM; IC50 (second compound 0.01 µM): 2.35 µM; IC50 (second compound 0.0316 µM): 2.71 µM; IC50 (second compound 0.1 µM): 1.95 µM; IC50 (second compound 0.316 µM): 0.944 µM; IC50 (second compound 1 µM): < 0.0316 µM; viability, T/C [1]: 98.9%; viability, T/C [2]: 94.4%; viability, T/C [3]: 96.2%; viability, T/C [4]: 76.3%; viability, T/C [5]: 49.4%; viability, T/C [6]: 41.6%; viability, T/C [7]: 109%; viability, T/C [8]: 104%; viability, T/C [9]: 104%; viability, T/C [10]: 75%; viability, T/C [11]: 41.8%; viability, T/C [12]: 27.7%; viability, T/C [13]: 106%; viability, T/C [14]: 91.2%; viability, T/C [15]: 94.2%; viability, T/C [16]: 85.8%; viability, T/C [17]: 44.3%; viability, T/C [18]: 29.5%; viability, T/C [19]: 95.8%; viability, T/C [20]: 89%; viability, T/C [21]: 79.4%; viability, T/C [22]: 65.7%; viability, T/C [23]: 38.4%; viability, T/C [24]: 25.6%; viability, T/C [25]: 54.1%; viability, T/C [26]: 79.6%; viability, T/C [27]: 63%; viability, T/C [28]: 48.5%; viability, T/C [29]: 31.8%; viability, T/C [30]: 24.9%; viability, T/C [31]: 46.1%; viability, T/C [32]: 54.1%; viability, T/C [33]: 45.1%; viability, T/C [34]: 46%; viability, T/C [35]: 31.2%; viability, T/C [36]: 20.8%

`Cn1nccc1Nc1nccc(-c2ccn(C(CO)c3ccc(Cl)c(F)c3)c(=O)c2)n1` (stereo unspecified) + CC(Nc1ccc2c(c1)OCCn1cc(N3C(=O)OCC3C(F)F)nc1-2)C(N)=O was tested. Which IC50 (second compound 0.00316 µM) did it give?
Its IC50 is > 10 µM.

What about the IC50 (second compound 0.01 µM) of the same molecule?
Its IC50 is 9.95 µM.

And the IC50 (second compound 0.0316 µM)?
Its IC50 is > 10 µM.

What about the IC50 (second compound 0.1 µM) of the same molecule?
Its IC50 is 6.57 µM.

What about the IC50 (second compound 0.316 µM) of the same molecule?
The IC50 was 2.11 µM.

What about the IC50 (second compound 1 µM) of the same molecule?
Its IC50 is 2.14 µM.

And the viability, T/C [1]?
Its viability, T/C is 91.7%.

What about the viability, T/C [2] of the same molecule?
Its viability, T/C is 81.7%.

And the viability, T/C [3]?
Its viability, T/C is 112%.

And the viability, T/C [4]?
Its viability, T/C is 104%.

What about the viability, T/C [5] of the same molecule?
Its viability, T/C is 78.7%.

And the viability, T/C [6]?
The viability, T/C was 69.7%.

What about the viability, T/C [7] of the same molecule?
The viability, T/C was 108%.

What about the viability, T/C [8] of the same molecule?
Its viability, T/C is 104%.

What about the viability, T/C [9] of the same molecule?
Its viability, T/C is 105%.

And the viability, T/C [10]?
Its viability, T/C is 102%.

And the viability, T/C [11]?
Its viability, T/C is 75.8%.

And the viability, T/C [12]?
The viability, T/C was 49.9%.

And the viability, T/C [13]?
Its viability, T/C is 101%.

And the viability, T/C [14]?
The viability, T/C was 86.4%.

And the viability, T/C [15]?
The viability, T/C was 92.4%.

What about the viability, T/C [16] of the same molecule?
The viability, T/C was 104%.

What about the viability, T/C [17] of the same molecule?
The viability, T/C was 75.7%.

What about the viability, T/C [18] of the same molecule?
The viability, T/C was 74.3%.

What about the viability, T/C [19] of the same molecule?
The viability, T/C was 102%.

What about the viability, T/C [20] of the same molecule?
Its viability, T/C is 77.5%.

And the viability, T/C [21]?
Its viability, T/C is 102%.

And the viability, T/C [22]?
The viability, T/C was 90.1%.

And the viability, T/C [23]?
Its viability, T/C is 87.4%.

And the viability, T/C [24]?
Its viability, T/C is 28.6%.

What about the viability, T/C [25] of the same molecule?
The viability, T/C was 81.5%.

What about the viability, T/C [26] of the same molecule?
The viability, T/C was 88.9%.

And the viability, T/C [27]?
Its viability, T/C is 86%.

What about the viability, T/C [28] of the same molecule?
The viability, T/C was 64.6%.

And the viability, T/C [29]?
Its viability, T/C is 41.9%.

What about the viability, T/C [30] of the same molecule?
The viability, T/C was 16.9%.

And the viability, T/C [31]?
Its viability, T/C is 67%.

And the viability, T/C [32]?
The viability, T/C was 64%.

What about the viability, T/C [33] of the same molecule?
The viability, T/C was 70.6%.

And the viability, T/C [34]?
The viability, T/C was 53.6%.

What about the viability, T/C [35] of the same molecule?
Its viability, T/C is 47.6%.

What about the viability, T/C [36] of the same molecule?
The viability, T/C was 6.4%.
